Measurements reported in patent US7786141B2 (Vertex Pharmaceuticals Incorporated, priority 2004, dated 2010).
pEC50: −log10 of the molar value. Where two headings read alike, the source gives them in different places.

Experiments:
M1 muscarinic receptor = molecular target: T1, M1 muscarinic receptor (Homo sapiens, UniProt P11229); test: Functional mobilization of intracellular calcium (FLIPR) in M1-CHO cells; format: cell-based
T1 construct: expressed in transfected cells; host or cells: CHO (M1-CHO)
T1 sequence (P11229 1-460): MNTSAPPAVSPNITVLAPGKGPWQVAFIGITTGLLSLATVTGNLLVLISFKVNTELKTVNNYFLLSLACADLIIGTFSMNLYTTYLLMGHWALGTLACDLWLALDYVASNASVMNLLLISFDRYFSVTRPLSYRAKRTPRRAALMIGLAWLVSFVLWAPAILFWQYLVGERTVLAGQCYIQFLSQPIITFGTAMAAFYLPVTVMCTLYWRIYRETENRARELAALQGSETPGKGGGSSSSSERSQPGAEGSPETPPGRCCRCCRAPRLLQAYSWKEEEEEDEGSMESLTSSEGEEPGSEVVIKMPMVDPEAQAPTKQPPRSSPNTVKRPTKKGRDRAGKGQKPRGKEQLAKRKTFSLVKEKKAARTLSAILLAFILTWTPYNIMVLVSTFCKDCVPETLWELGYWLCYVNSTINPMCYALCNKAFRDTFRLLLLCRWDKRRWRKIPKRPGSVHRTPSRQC
Procedure, shortened: (§1)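 Two modes: direct compound addition for agonism, or 15 min compound pre-incubation (or co-application) before carbachol at EC80 for inhibition. Calcium signal from Fluo-3 AM or Calcium 3 dye in CHO cells, 1 mM probenecid, pH 7.4, read 60 sec at 488/540 nm; DMSO 0.5% final.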

M4 muscarinic receptor = molecular target: T2, M4 muscarinic receptor (Homo sapiens, UniProt P08173); test: Functional mobilization of intracellular calcium (FLIPR) in M4-CHO cells; format: cell-based
T2 construct: expressed in transfected cells; host or cells: CHO (M4-CHO)
T2 sequence (P08173 1-479): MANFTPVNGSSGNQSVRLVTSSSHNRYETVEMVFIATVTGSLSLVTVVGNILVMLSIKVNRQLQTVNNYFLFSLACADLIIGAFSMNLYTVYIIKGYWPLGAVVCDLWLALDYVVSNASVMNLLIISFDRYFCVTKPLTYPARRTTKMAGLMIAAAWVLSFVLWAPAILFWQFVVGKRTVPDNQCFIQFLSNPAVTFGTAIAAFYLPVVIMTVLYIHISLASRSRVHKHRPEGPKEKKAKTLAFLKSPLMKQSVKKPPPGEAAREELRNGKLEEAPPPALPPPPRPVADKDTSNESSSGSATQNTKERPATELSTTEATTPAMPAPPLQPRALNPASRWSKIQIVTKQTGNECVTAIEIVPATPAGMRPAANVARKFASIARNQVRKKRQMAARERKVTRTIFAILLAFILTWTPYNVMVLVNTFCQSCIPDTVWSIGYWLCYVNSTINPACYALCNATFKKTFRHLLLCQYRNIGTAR
Procedure, shortened: as §1

[1] = M1 receptor, calcium mobilization
[2] = M1 receptor, calcium mobilization, read-out: M1 Efficacy
[3] = M4 receptor, calcium mobilization
[4] = M4 receptor, calcium mobilization, read-out: M4 Efficacy
[5] = Table 4, 100% efficacy is the maximum response obtained with the Carbachol control
[6] = Table 4, M1 receptor, calcium mobilization (FLIPR)
[7] = Table 4, M4 receptor, calcium mobilization (FLIPR)
[8] = Table 4, modulating M1 receptor
[9] = Table 4, modulating M4 receptor
[10] = 100% efficacy is the maximum response obtained with the Carbachol control, Table 5

Row | SMILES | M1 Activity (M1 muscarinic receptor; [1]) | Emax (M1 muscarinic receptor; [2]) [%] | M4 Activity (M4 muscarinic receptor; [3]) | Emax (M4 muscarinic receptor; [4]) [%] | Emax (M1 muscarinic receptor; [5]) [%] | Emax (M4 muscarinic receptor; [5]) [%] | M1 Activity (M1 muscarinic receptor; [8]) | M4 Activity (M4 muscarinic receptor; [9]) | other results
1 | CCOC(=O)N1C2CCC1CC(N1CCC3(CC1)CN(C(=O)c1cc(C)n(C)n1)c1ccc(F)cc13)C2 (centres unmarked) [compound 50] | xxx (activity was measured to be less than 0.1 μM) | > 85 | xx (activity was measured to be between 0.1 μM and 1.0 μM) | > 85 |  |  |  |  | 
2 | CCOC(=O)N1CCC(CN2CCCC3(CC2)CN(C(C)=O)c2ccc(F)cc23)CC1 (centres unmarked) [compound 1003] |  |  |  |  | 25 to 100 | 25 to 100 |  |  | M1 Activity (M1 muscarinic receptor; [6]): xxx (activity was measured to be less than 2.0 μM); M4 Activity (M4 muscarinic receptor; [7]): xxx (activity was measured to be less than 2.0 μM)
3 | CN(C)C(=O)N1CC2(CCN(C3CCN(C(=O)c4cccnc4)CC3)CC2)c2cc(F)ccc21 [compound 795] |  |  |  |  | < 25 | < 25 | xx (activity was measured to be between 2.0 μM and 5.0 μM) | x (activity was measured to be greater than 5.0 μM) | 
4 | CCOC(=O)N1CCC(CN2CCC3(CC2)C(=O)N(C)c2ccccc23)CC1 [compound 327] | x (activity was measured to be greater than 1.0 μM) | < 65 | x (activity was measured to be greater than 1.0 μM) | < 65 |  |  |  |  | 
5 | Cc1ccc2c(c1)C1(CCN(CC3CC4CCC3O4)CC1)CN2 (centres unmarked) [compound 372] | xxx (activity was measured to be less than 0.1 μM) | 65 to 85 | xx (activity was measured to be between 0.1 μM and 1.0 μM) | > 85 |  |  |  |  | 
6 | CCCCNC(=O)N1CC2(CCN(C3CCN(C(=O)OCC)CC3)CC2)c2ccccc21 [compound 721] |  |  |  |  | 25 to 100 | 25 to 100 | xxx (activity was measured to be less than 2.0 μM) | xxx (activity was measured to be less than 2.0 μM) | 
7 | CCCOC(=O)N1CCCC(N2CCC3(CC2)CN(C(=O)N(C)C)c2ccc(F)cc23)CC1 (centres unmarked) [compound 749] |  |  |  |  | 25 to 100 | 25 to 100 | xxx (activity was measured to be less than 2.0 μM) | xxx (activity was measured to be less than 2.0 μM) | 
8 | CCOC(=O)N1C2CCC1CC(N1CCC3(CC1)CN(C(C)=O)c1ccc(C(C)C)cc13)C2 (centres unmarked) [compound 606] |  |  |  |  | 25 to 100 | 25 to 100 | xxx (activity was measured to be less than 2.0 μM) | xxx (activity was measured to be less than 2.0 μM) | 
9 | CCOC(=O)N1CCC(N2CCC3(CC2)CN(C(C)=O)c2c(F)ccc(F)c23)CC1 [compound 431] |  |  |  |  | 25 to 100 | 25 to 100 | xx (activity was measured to be between 2.0 μM and 5.0 μM) | xx (activity was measured to be between 2.0 μM and 5.0 μM) | 
10 | COc1cc2c(cc1OC)C1(CCN(C3CCCCCC3)CC1)C[C@@H]2NC(C)=O [compound 442] |  |  |  |  | < 25 | < 25 | x (activity was measured to be greater than 5.0 μM) | x (activity was measured to be greater than 5.0 μM) | 
11 | COCCOC(=O)N1CCC(CN2CCC3(CC2)CN(C(C)=O)c2ccc(C)cc23)CC1 [compound 419] |  |  |  |  |  |  |  |  | pEC50 (M1 muscarinic receptor; M1-CHO cells, calcium mobilization (FLIPR)): < 6.00; Emax (M1 muscarinic receptor; M1-CHO cells, calcium mobilization (FLIPR), read-out: M1 Efficacy): < 65%; pEC50 (M4 muscarinic receptor; M4-CHO cells, calcium mobilization (FLIPR)): < 6.00; Emax (M4 muscarinic receptor; M4-CHO cells, calcium mobilization (FLIPR), read-out: M4 Efficacy): < 65%
12 | CC(=O)N[C@H]1CC2(CCN(CC3CC4CCC3C4)C2)c2ccc(F)cc21 (some centres unmarked) [compound 640] |  |  |  |  | 25 to 100 | 25 to 100 | xxx (activity was measured to be less than 2.0 μM) | xxx (activity was measured to be less than 2.0 μM) | 
13 | CC(C)OC(=O)N1C2CCC1CC(N1CCC3(CC1)COc1ccc(F)cc13)C2 (centres unmarked) [compound 320] | xx (activity was measured to be between 0.1 μM and 1.0 μM) | 65 to 85 | x (activity was measured to be greater than 1.0 μM) | < 65 |  |  |  |  | 
14 | CCOC(=O)N1C2CCC1CC(N1CCC3(CC1)CN(C(=O)OCCOC)c1ccc(F)cc13)C2 (centres unmarked) [compound 90] | xx (activity was measured to be between 0.1 μM and 1.0 μM) | 65 to 85 | x (activity was measured to be greater than 1.0 μM) | < 65 |  |  |  |  | 
15 | CCCOC(=O)N1CC2(CCN(C3CCN(C(=O)OCC)CC3)CC2)c2cc(F)ccc21 [compound 114] | xx (activity was measured to be between 0.1 μM and 1.0 μM) | 65 to 85 | x (activity was measured to be greater than 1.0 μM) | < 65 |  |  |  |  | 
16 | CN(C)C(=O)N1CC2(CCN(C3CCN(c4ccsc4)CC3)CC2)c2cc(F)ccc21 [compound 1041] |  |  |  |  |  |  |  |  | Emax (M1 muscarinic receptor; [10]): 25 to 100%; pEC50 (M1 muscarinic receptor; CHO cells expressing M1, calcium mobilization, Table 5): 5.00 to 5.70; Emax (M4 muscarinic receptor; [10]): 25 to 100%; pEC50 (M4 muscarinic receptor; CHO cells expressing M4, calcium mobilization, Table 5): 5.00 to 5.70
17 | O=C(OC1CCC1)N1CC2(CCN(C3CC4CCC(C3)N4C(=O)O[C@H]3CCOC3)CC2)c2cc(F)ccc21 (some centres unmarked) [compound 125] | xxx (activity was measured to be less than 0.1 μM) | 65 to 85 | xx (activity was measured to be between 0.1 μM and 1.0 μM) | < 65 |  |  |  |  | 
18 | CC(C)C(=O)N1CCC(N2CCC3(CC2)CN(C(=O)N(C)C)c2ccc(F)cc23)CC1 [compound 665] |  |  |  |  | 25 to 100 | < 25 | x (activity was measured to be greater than 5.0 μM) | x (activity was measured to be greater than 5.0 μM) | 
19 | CCCOC(=O)N1C2CCC1CC(N1CCC3(CC1)CN(C(=O)OC1CCC1)c1ccc(F)cc13)C2 (centres unmarked) [compound 329] | xxx (activity was measured to be less than 0.1 μM) | 65 to 85 | x (activity was measured to be greater than 1.0 μM) | < 65 |  |  |  |  | 
20 | CN(C)C(=O)N[C@H]1CC2(CCN([C@@H]3CC4CC[C@@H]3C4)CC2)c2ccccc21 [compound 1005] |  |  |  |  | < 25 | 25 to 100 |  |  | M1 Activity (M1 muscarinic receptor; [6]): x (activity was measured to be greater than 5.0 μM); M4 Activity (M4 muscarinic receptor; [7]): xxx (activity was measured to be less than 2.0 μM)
21 | CC1=C(CCN2CCC3(CC2)C[C@H](NC(=O)C2CCCC2)c2ccccc23)C(C)(C)CCC1 [compound 873] |  |  |  |  | < 25 | < 25 |  |  | M1 Activity (M1 muscarinic receptor; [6]): x (activity was measured to be greater than 5.0 μM); M4 Activity (M4 muscarinic receptor; [7]): x (activity was measured to be greater than 5.0 μM)
22 | CN(C)C(=O)N1CC2(CCN(C3CCN(C(=O)c4cccs4)CC3)CC2)c2cc(F)ccc21 [compound 649] |  |  |  |  | 25 to 100 | < 25 | xxx (activity was measured to be less than 2.0 μM) | xxx (activity was measured to be less than 2.0 μM) | 
23 | CC(C)NC(=O)N1C2CCC1CC(N1CCC3(CC1)COc1ccc(F)cc13)C2 (centres unmarked) [compound 289] | xxx (activity was measured to be less than 0.1 μM) | < 65 | x (activity was measured to be greater than 1.0 μM) | < 65 |  |  |  |  | 
